Structures can show the parent of a compound that is named as a salt. Where two headings read alike, the source gives them in different places.
What was measured:
[1] = tested on: carrageenan-induced paw oedema; assay: Acute oedema induced by carrageenan (anti-inflammatory test, rat paw swelling by plethysmography); format: in vivo; settings: for inhibition in vivo at 100 mg/kg: Rattus norvegicus, read-out: Acute oedema induced by carrageenan, % of inhibition
Protocol: The anti-inflammatory properties are determined as follows:
The compounds to be tested are given as freshly prepared solutions or suspensions by oral route one hour before injecting the paw with carrageenan, a known inflammatory agent.
The inflammatory agent either in aqueous solution or suspension is then injected into the plantar tissue of the right hind paw of each rat, the left paw remaining untreated and serving as control. Each animal receives for example 0.05 ml of an aqueous solution containing 1 % of carrageenan and 0.9 % of sodium chloride.
4 hours after injection, the importance of swelling is determined by plethysmography and is expressed as a percent of the volume of the control paw.
The anti-inflammatory effect expressed as a percent of inhibition is obtained by comparison between rats treated with the anti-inflammatory agent and a control group of rats.
100 mg/kg of anti-inflammatory agent are administered by oral route.

[2] = tested on: test animal (left carotid and femoral artery flow, ventricular and aortic pressure); assay: Cardiovascular properties (flow rates of carotid and femoral artery, ventricular and aortic pressures) in the test animal; format: in vivo; set-up: ventricular and aortic pressures after moderate lowering: unit not given here; settings: for ventricular and aortic pressures after sharp fall: from 130 mm of Hg
Protocol: Some compounds of this invention also have interesting cardiovascular properties so that they may be used as cerebral, coronary and peripheral vasodilators and hypotension-inducing agents, whereby the hypotension activity may occur primarily or secondarily with respect to the peripheral vasodilatation.
These cardiovascular properties have been found as follows:
After administration of the compound at the hereafter-indicated doses, the following parameters are measured on the test animal: the electrocardiogram, the left ventricular pressure, the amplified telediastolic pressure, the derivative of the ventricular pressure with respect to time (dp/dt), the aortic pressure, the average and pulsatile blood flow of the left carotid and femoral artery.

[3] = 100 mg/kg oral, one hour before carrageenan, 4 hours after injection

CC(=O)Oc1ccccc1C(=O)O [Acetosalicylic acid, reference compound]
inhibition in vivo at 100 mg/kg ([1]; po, 4 h): 0%

CCNS(=O)(=O)c1cccnc1N1CCN(C)CC1 [Example 4, 2-(4'-methyl-1'-piperazinyl)-pyridine-3-ethylsulfonamide]
inhibition in vivo at 100 mg/kg [1, 3]: 50%

CCN(CC)S(=O)(=O)c1cccnc1N1CCN(C)CC1 [Example 5, 2-(4'-methyl-1'-piperazinyl)-pyridine-3-diethylsulfonamide dihydrochloride]
inhibition in vivo at 100 mg/kg [1, 3]: 44%

CCNS(=O)(=O)c1ccc(N2CCN(C)CC2)nc1 [Example 11, 2-(4'-methyl-1'-piperazinyl)-pyridine-5-ethylsulfonamide]
inhibition in vivo at 100 mg/kg [1, 3]: 42.4%

CN1CCN(c2ncccc2C#N)CC1 [Example 14, 2-(4'-methyl-1'-piperazinyl)-3-cyanopyridine hydrochloride]
inhibition in vivo at 100 mg/kg [1, 3]: 63.2%

CNC(=O)c1cccnc1N1CCN(C)CC1 [Example 19, 2-(4'-methyl-1'-piperazinyl)-pyridine-3-methylcarboxamide]
inhibition in vivo at 100 mg/kg [1, 3]: 51.2%

CCNC(=O)c1cccnc1N1CCN(C)CC1 [Example 21, 2-(4'-methyl-1'-piperazinyl)-pyridine-3-ethylcarboxamide]
inhibition in vivo at 100 mg/kg [1, 3]: 44.4%

CC(C)NC(=O)c1cccnc1N1CCN(C)CC1 [Example 22, 2-(4'-methyl-1'-piperazinyl)-pyridine-3-isopropylcarboxamide]
inhibition in vivo at 100 mg/kg [1, 3]: 40%

CN1CCN(c2ccc(C#N)cn2)CC1 [Example 23, 2-(4'-methyl-1'-piperazinyl)-5-cyanopyridine]
inhibition in vivo at 100 mg/kg [1, 3]: 48.8%

CN1CCN(c2ccc(C(=O)N(C)C)cn2)CC1 [Example 25, 2-(4'-methyl-1'-piperazinyl)-5-dimethylcarboxamide]
inhibition in vivo at 100 mg/kg [1, 3]: 28.8%

CC(C)NC(=O)c1ccc(N2CCN(C)CC2)nc1 [Example 27, 2-(4'-methyl-1'-piperazinyl)-5-isopropylcarboxamide]
inhibition in vivo at 100 mg/kg [1, 3]: 32%

CN1CCN(c2ccncc2S(N)(=O)=O)CC1 [Example 28, 4-(4'-methyl-1'-piperazinyl)-pyridine-3-sulfonamide]
duration of activity on / increase of the carotid and femoral flow rates ([2]; 2 mg/kg): more than 5 min | time to return of ventricular and aortic pressures to the starting values / reversal of lowering ([2]; 2 mg/kg): ≤ 2 min | ventricular and aortic pressures after moderate lowering ([2]; 2 mg/kg, from 160 mm of Hg): 100 | increase of the femoral flow rate ([2]; 2 mg/kg, maximum): 100% | increase of the carotid flow rate ([2]; 2 mg/kg, maximum where stated): 150% | phenomena (flow rates and pressures) compared with 2 mg/kg ([2]; 4 mg/kg): The same phenomena occur | time to return of pressures to the starting values ([2]; 4 mg/kg): 40 min | ventricular and aortic pressures after lowering ([2]; 4 mg/kg, from 160 mm of Hg): 70 mm of Hg | phenomena (flow rates and pressures) compared with 4 mg/kg ([2]; 8 mg/kg): identical phenomena are observed | time to return of pressures to their starting value ([2]; 8 mg/kg): 50 min

CNS(=O)(=O)c1cnccc1N1CCN(C)CC1 [Example 29, 4-(4'-methyl-1'-piperazinyl)-pyridine-3-methylsulfonamide]
duration of increase of the femoral flow rate ([2]; 2 mg/kg): less than 5 min | increase of the femoral flow rate ([2]; 2 mg/kg, maximum): 80% | duration of increase of the carotid and femoral flow rates ([2]; 4 mg/kg): 10 min | modification of the pressures ([2]; 4 mg/kg): slight reflex modification of the pressures | increase of the carotid flow rate ([2]; 4 mg/kg, maximum where stated): 120% | increase of the femoral flow rate ([2]; 4 mg/kg, maximum where stated): 80% | increase of the carotid flow rate ([2]; 10 mg/kg): 300% | phenomena (flow rates and pressures) compared with 4 mg/kg ([2]; 10 mg/kg): identical phenomena occur which are however stronger and of longer duration

CCN(CC)S(=O)(=O)c1cnccc1N1CCN(C)CC1 [Example 32, 4-(4'-methyl-1'-piperazinyl)-pyridine-3-diethylsulfonamide]
inhibition in vivo at 100 mg/kg [1, 3]: 44.8% | time to fall of cardiac and peripheral pressures ([2]; 2 mg/kg): ≤ 45 s | cardiac and peripheral pressures on recovery ([2]; 2 mg/kg, after 5 minutes): 135 mm of Hg | cardiac and peripheral pressures after fall ([2]; 2 mg/kg, from 150 mm of Hg): 75 mm of Hg | increase of the carotid flow rate ([2]; 2 mg/kg, maximum where stated): 60% | duration of hypotension / fall of pressure ([2]; 4 mg/kg): more than 20 min | time to return of pressures to the starting values ([2]; 4 mg/kg): > 70 min | pressure on return to the starting values ([2]; 4 mg/kg, after 70 minutes): 130 mm of Hg | pressure in moderate hypotension ([2]; 4 mg/kg, from 135 mm of Hg): 75 mm of Hg

CC(C)NS(=O)(=O)c1cnccc1N1CCN(C)CC1 [Example 33, 4-(4'-methyl-1'-piperazinyl)-pyridine-3-isopropylsulfonamide]
duration of increase of the average carotid flow rate ([2]; 2 mg/kg): 5 min | increase of the average carotid flow rate ([2]; 2 mg/kg): slight increase | time the carotid flow rate remains high compared to control values ([2]; 4 mg/kg): 10 min | time to increase of the carotid flow rate ([2]; 4 mg/kg): within two minutes | time to fall of femoral flow rate to the starting values ([2]; 4 mg/kg, after injection): ≤ 2 min | increase of the carotid flow rate ([2]; 4 mg/kg, maximum where stated): 300% | increase of the femoral flow rate ([2]; 4 mg/kg, maximum where stated): 200%

CN1CCN(CCNS(=O)(=O)c2cnccc2N2CCN(C)CC2)CC1 [Example 38, 4-(4'-methyl-1'-piperazinyl)-pyridine-3-(4"-methyl-1"-piperazinyl)-ethylsulfonamide]
Acute oedema induced by carrageenan, % of inhibition [1, 3]: 60.8% | activity on the carotid and femoral flow rates ([2]; 2 mg/kg): slight and breaf | duration of activity on / increase of the carotid and femoral flow rates ([2]; 2 mg/kg): 5 min | duration of action on the carotid and femoral flow rates ([2]; 4 mg/kg and 8 mg/kg): 10 min | increase of the average flow rates (carotid and femoral) ([2]; 4 mg/kg and 8 mg/kg): 100%

COCCNS(=O)(=O)c1cnccc1N1CCN(C)CC1 [Example 39, 4-(4'-methyl-1'-piperazinyl)-pyridine-3-methyoxyethylsulfonamide]
inhibition in vivo at 100 mg/kg [1, 3]: 55.2% | time to return of ventricular and aortic pressures to the starting values / reversal of lowering ([2]; 2 mg/kg): less than 3 min | ventricular and aortic pressures after sharp fall ([2]; 2 mg/kg): 90 mm of Hg | increase of the carotid flow rate ([2]; 2 mg/kg, maximum where stated): 75% | duration of hypotension / fall of pressure ([2]; 4 mg/kg): 2 min | increase of the peripheral flow rates ([2]; 4 mg/kg): 50% | time to return of pressures to the starting values ([2]; 4 mg/kg): 30 min | ventricular and aortic pressures after sharp fall ([2]; 4 mg/kg): 40 mm of Hg

CCOCCNS(=O)(=O)c1cnccc1N1CCN(C)CC1 [Example 40, 4-(4'-methyl-1'-piperazinyl)-pyridine-3-ethoxyethylsulfonamide]
inhibition in vivo at 100 mg/kg [1, 3]: 60% | duration of activity on / increase of the carotid and femoral flow rates ([2]; 2 mg/kg): less than 5 min | variation of the cardiac and peripheral pressures ([2]; 2 mg/kg): without variation | increase of the femoral flow rate ([2]; 2 mg/kg, maximum): 50% | increase of the carotid flow rate ([2]; 2 mg/kg, maximum where stated): 300% | duration of hypotension / fall of pressure ([2]; 4 mg/kg): 3 min | increase of the carotid flow rate ([2]; 4 mg/kg): moderate increase of the carotid flow rate remains after return of the pressure rates to normal conditions | return of blood pressure to the starting values ([2]; 4 mg/kg): quick return to the starting values | blood pressure after moderate fall ([2]; 4 mg/kg, from 150 mm of Hg): 90 mm of Hg

CN(C)C=NS(=O)(=O)c1cnccc1N1CCN(C)CC1 [Example 48, 4-(4'-methyl-1'-piperazinyl)-pyridine-3-dimethylaminomethinesulfonamide]
duration of activity on / increase of the carotid and femoral flow rates ([2]; 2 mg/kg): 5 min | increase of the carotid and femoral flow rates ([2]; 2 mg/kg): 100% | duration of increase of the carotid and femoral flow rates ([2]; 4 mg/kg): 10 min | fall of the ventricular and aortic pressures ([2]; 4 mg/kg): temporary and moderate fall | increase of the carotid and femoral flow rates ([2]; 4 mg/kg, compared with 2 mg/kg): stronger and longer | phenomena (flow rates and pressures) compared with 4 mg/kg ([2]; 8 mg/kg): Identical phenomena are observed

O=C(O)c1ccccc1Nc1cccc(C(F)(F)F)c1 [Flufenamic acid, reference compound]
inhibition in vivo at 100 mg/kg [1, 3]: 34%

CN1c2ccccc2Sc2ccc(CC(=O)O)cc21 [Methiazinic acid, reference compound]
inhibition in vivo at 100 mg/kg [1, 3]: 46%

O=C(O)c1cccnc1Nc1cccc(C(F)(F)F)c1 [Niflumic acid, reference compound]
inhibition in vivo at 100 mg/kg [1, 3]: 32%

CCCCC1C(=O)N(c2ccccc2)N(c2ccccc2)C1=O [Phenylbutazone, reference compound]
inhibition in vivo at 100 mg/kg [1, 3]: 41%

— patent US3991057A, “C-Piperazino-pyridine sulfonamides” (A. Christiaens Societe Anonyme, priority 1970, dated 1976)
